Like-named read-outs stand apart in the source and are kept apart here.
Key:
[1] = metabolic stability using Human liver Microsomes; type: in vitro ADME; parameters: unit not given here; conditions: 1 μM test compound, 1 mg/mL protein, pH 7.4, 0-60 min
Experimental: In vitro evaluation of test compounds for metabolic stability using Human liver
Test System Human (Mouse) Liver Microsomes
Test compound concentration: 1μM
Time Points: 0, 5, 10, 30 and 60 minutes
Final Protein concentration: 1 mg/mL
Number of Replicates: Two
Potassium Phosphate Buffer pH 7.4 100 mM
End Point: % Remaining of Test compound, Half life, Clint
Preparation and Dilution of Test Compound:
10 mM stock solution of test compound were prepared in DMSO and dilute with water: acetonitrile (1:1) to a concentration of 1 mM. Working concentration of 100 μM were prepared by further dilution with water: acetonitrile (1: 1).
Preparation of Potassium Phosphate buffer pH 7.4:
100 mL of Milli Q water will be added to K2HPO4 (1.398 g) and KH2PO4 (0.27 g) to get final pH 7.4.
Preincubation mixture: 2.5 μL Test Cpd.+75 μL Liver microsomes@3.33 mg/mL+85 μL of 100 mM potassium phosphate buffer (Preincubate for 10 min @37° C.)
60 min w/o cofactor: 32.5 μL of Preincubation mixture+17.5 μL of 100 mM potassium phosphate buffer (Incubate for 60 min@37° C.)
0 min sample: 16.25 μL of Preincubation mixture+200 μL of acetonitrile containing internal standard+8.75 μL of cofactor Incubation mixture 62 μL of cofactor (2.5 mM)+Remaining incubation mixture (Incubated for 60 min@37° C.).
Sample preparation: 25 μL incubation mixture+200 μL of acetonitrile containing internal standard+Vortex 5 min@1200 rpm+Centrifuge 10 min@4000 rpm. Dilute supernatant 2 fold with water and injected on LC-MS/MS.
Bioanalysis: LC-MS/MS method LC generic gradient conditions will be used and the details will be provided in the report.

[2] = biological target: rat P2X7R (Rattus norvegicus (Rat), UniProt Q64663); assay: rat P2X7 Ca2+ influx, Screen Quest Fluo-8 No Wash Calcium Assay Kit (FLIPR TETRA); type: cell-based; conditions: read-out: rP2X7 (IC50; nM)
Experimental: Ca^2+ influx was measured in HEK-293 cells stably transfected with the receptor using Screen Quest™ Fluo-8 No Wash Calcium Assay Kit (AAt Bioquest®). Briefly, once inside the cells, the lipophilic blocking groups of Fluo-8 are cleaved by non-specific cell esterases, resulting in a negatively-charged fluorescent-dye that stays inside cells. Its fluorescence increases upon binding to calcium. When HEK-293/P2X7 cells were stimulated with BzATP, Ca^2+ entered the cells and the fluorescence of Fluo-8 NW increaseed.
To routinely test the compounds, HEK-293 cells stably transfected with rat P2X7R were seeded overnight in growth medium at 10000, 15000 or 20000 cells/well in 384-well plate, according to the level of response after thawing. 24 hours later, the medium was removed and the cells were pre-loaded at RT for 1 hour with 20 μL/w of Fluo-8 NW prepared in Tyrode 0.3 mM Ca^2+/Mg^2+-free.
Compounds were tested at […] according to the following method: • first injection at […] of 10 μL of 3× test compound (in Tyrode's buffer 0.3 mM Ca^2+/Mg^2+-free+DMSO 0.5% final concentration) • 5′ incubation • second injection at […] of 15 µL of 3× BzATP at ˜ECK) (in Tyrode's buffer 0.3 mM Ca^2+/Mg^2+-free+BSA 0.0003% final concentration) • Fluorescence recording for 3′
Between one plate and the following, tips were extensively washed with water, then with 100% DMSO and finally with water to avoid carry-over inside the tips.
The effect of the test compounds was measured as percent inhibition vs a reference antagonist and IC50 values were calculated accordingly.

[3] = biological target: human P2X7 channel (Homo sapiens (Human), UniProt Q99572); assay: human P2X7 channel assay by automated patch-clamp (QPatch16X), BzATP-evoked current; type: cell-based; conditions: HEK-293 cells expressing P2X7, whole-cell voltage clamp, 100 microM BzATP, holding -80 mV; read-out: hP2X7 (IC50; nM)
Experimental: In order to directly monitor the block of P2X7 channel, an electrophysiological assay was developed and implemented on the QPatch16X automated electrophysiology instrument.
HEK-293 cells expressing the P2X7 channels were cultured in modified EMEM.
72 hours before experiment, 5 million cells were seeded onto T225 flasks. Just before the experiment cells were washed twice, detached from the flask with trypsin-EDTA, re-suspended in the suspension solution and placed on the QPatch 16x.
The compounds (20 mM in a 100% DMSO) stored at −20° C. were prepared the day of the experiment (a first dilution 1:20 in 100% DMSO to prepare a 1 mM stock solution, then a 1 microM solution in external solution+a serial dilution 1:10).
The standard whole-cell voltage clamp experiments were performed at room temperature. For these experiments the multihole technology was used and the data were sampled at 2 KHz.
After establishment of the seal and the passage in the whole cell configuration, the cells were held at −80 mV. The P2XR7 current was evoked by applying 100 microM of BzATP alone (4 times) and then in the presence increasing concentrations of the compound under investigation (1, 10, 100 and 1000 nM).
The pre-incubation periods 5 to 8 contain increasing concentrations of the compound of interest (1, 10, 100 and 1000 nM), as illustrated in FIGURE.
The maximal inward current evoked by BzATP in absence or presence of increasing concentrations of the compounds under investigation was measured and normalized.
Y: normalized response, 100% down to 0%, decreasing as X increases.
LogIC50: same log units as X
HillSlope: slope factor or HS, unitless

[4] = Table 4, HEK-293 cells stably transfected with rat P2X7R, BzATP stimulation

Sequence of human P2X7 channel (Q99572 whole entry): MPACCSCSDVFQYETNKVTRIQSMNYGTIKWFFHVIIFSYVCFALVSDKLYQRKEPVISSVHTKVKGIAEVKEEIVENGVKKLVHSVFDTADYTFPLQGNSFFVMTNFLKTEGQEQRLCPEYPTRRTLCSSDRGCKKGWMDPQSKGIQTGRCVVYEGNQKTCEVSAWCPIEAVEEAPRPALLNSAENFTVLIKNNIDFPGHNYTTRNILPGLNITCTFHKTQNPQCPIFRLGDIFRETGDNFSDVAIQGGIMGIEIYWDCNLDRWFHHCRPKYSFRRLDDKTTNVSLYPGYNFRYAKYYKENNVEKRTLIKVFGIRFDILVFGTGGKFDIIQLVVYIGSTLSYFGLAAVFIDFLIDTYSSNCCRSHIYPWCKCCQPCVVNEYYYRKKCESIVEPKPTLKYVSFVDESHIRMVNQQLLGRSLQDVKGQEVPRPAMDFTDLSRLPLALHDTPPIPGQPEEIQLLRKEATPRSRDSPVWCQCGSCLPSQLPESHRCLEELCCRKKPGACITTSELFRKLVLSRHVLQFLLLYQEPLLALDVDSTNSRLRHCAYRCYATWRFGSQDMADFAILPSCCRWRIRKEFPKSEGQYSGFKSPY
Sequence of rat P2X7R (Q64663 whole entry): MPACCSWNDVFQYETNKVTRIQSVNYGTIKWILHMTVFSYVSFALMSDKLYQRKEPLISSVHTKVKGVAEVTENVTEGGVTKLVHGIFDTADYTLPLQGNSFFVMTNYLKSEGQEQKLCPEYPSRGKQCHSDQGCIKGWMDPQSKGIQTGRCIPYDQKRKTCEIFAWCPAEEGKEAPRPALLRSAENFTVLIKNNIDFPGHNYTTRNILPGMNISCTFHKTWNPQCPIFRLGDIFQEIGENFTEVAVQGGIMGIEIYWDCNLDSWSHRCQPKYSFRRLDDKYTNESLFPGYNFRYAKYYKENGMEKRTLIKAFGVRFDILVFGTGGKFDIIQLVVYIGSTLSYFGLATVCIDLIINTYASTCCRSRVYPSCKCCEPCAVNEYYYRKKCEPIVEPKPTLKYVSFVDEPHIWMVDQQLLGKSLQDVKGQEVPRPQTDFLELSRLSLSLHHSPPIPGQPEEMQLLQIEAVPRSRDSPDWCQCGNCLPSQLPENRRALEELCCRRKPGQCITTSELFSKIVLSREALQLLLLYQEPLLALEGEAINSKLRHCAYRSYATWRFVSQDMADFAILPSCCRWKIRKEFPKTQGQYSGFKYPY

| Human Liver Microsomal Clearance (CLi; μg/min/mg protein) [1] | IC50 [2, 4] [nM] | IC50 [3] [nM] | IC50 ([2]; Table 5, comparison with Compound 59 of WO2015118019) [nM] | SMILES |
| --- | --- | --- | --- | --- |
| 93.44 | 355 | 30.2 |  | Cc1ncsc1C(CNC(=O)c1cccc2ncccc12)N1CCC(Oc2ccccc2F)CC1 (stereo not shown) [Compound 22, N-{2-[4-(2-fluorophenoxy)piperidin-1-yl]-2-(4-methyl-1,3-thiazol-5-yl)ethyl}quinoline-5-carboxamide] |
| 59.41 | 594 | 30.6 |  | Cc1ncsc1C(CNC(=O)c1c(F)cccc1Cl)N1CCC(Oc2cc(F)cc(F)c2)CC1 (stereo not shown) [Compound 11, 2-chloro-N-{2-[4-(3,5-difluorophenoxy)piperidin-1-yl]-2-(4-methyl-1,3-thiazol-5-yl)ethyl}-6-fluorobenzamide] |
| 71.12 | 582 | 23.9 |  | Cc1ncsc1C(CNC(=O)c1cccc2ncccc12)N1CCC(Oc2ccc(F)cc2)CC1 (stereo not shown) [Compound 19, N-{2-[4-(4-fluorophenoxy)piperidin-1-yl]-2-(4-methyl-1,3-thiazol-5-yl)ethyl}quinoline-5-carboxamide] |
|  | 371 | 42.1 |  | Cc1ncsc1C(CNC(=O)c1cccc2ncccc12)N1CCC(OCc2ccc(F)cc2)CC1 (stereo not shown) [Compound 13, N-(2-{4-[(4-fluorophenyl)methoxy]piperidin-1-yl}-2-(4-methyl-1,3-thiazol-5-yl)ethyl)quinoline-5-carboxamide] |
|  | 441 | 28.9 |  | O=C(NCC(c1scnc1C(F)F)N1CCC(Oc2cccc(F)c2)CC1)c1c(F)cccc1Cl (stereo not shown) [Compound 29, 2-chloro-N-{2-[4-(difluoromethyl)-1,3-thiazol-5-yl]-2-[4-(3-fluorophenoxy)piperidin-1-yl]ethyl}-6-fluorobenzamide] |
|  | 144 | 39.7 | 144 | O=C(NCC(c1scnc1C(F)F)N1CCC(Oc2ccc(F)cc2)CC1)c1cccc2ncccc12 (stereo not shown) [Compound 34, N-{2-[4-(difluoromethyl)-1,3-thiazol-5-yl]-2-[4-(4-fluorophenoxy)piperidin-1-yl]ethyl}quinoline-5-carboxamide] |
|  | 182 | 56.2 |  | O=C(NCC(c1scnc1C(F)F)N1CCC(OCc2ccc(F)c(F)c2)CC1)c1cccc2ncccc12 (stereo not shown) [Compound 33, N-{2-[4-(difluoromethyl)-1,3-thiazol-5-yl]-2-{4-[(3,4-difluorophenyl)methoxy]piperidin-1-yl}ethyl}quinoline-5-carboxamide] |
|  | 373 | 5.95 |  | Cc1ncsc1C(CNC(=O)c1c(F)cccc1Cl)N1CCC(OCc2cccc(F)c2)CC1 (stereo not shown) [Compound 3, 2-chloro-6-fluoro-N-(2-{4-[(3-fluorophenyl)methoxy]piperidin-1-yl}-2-(4-methyl-1,3-thiazol-5-yl)ethyl)benzamide] |
|  | 288 | 11.6 |  | Cc1ncsc1C(CNC(=O)c1cccc2ncccc12)N1CCC(OCc2cccc(F)c2)CC1 (stereo not shown) [Compound 15, N-(2-{4-[(3-fluorophenyl)methoxy]piperidin-1-yl}-2-(4-methyl-1,3-thiazol-5-yl)ethyl)quinoline-5-carboxamide] |
|  | 380 | 25.8 |  | Cc1ncsc1C(CNC(=O)c1c(F)cccc1Cl)N1CCC(Oc2ccc(F)c(F)c2)CC1 (stereo not shown) [Compound 12, 2-chloro-N-{2-[4-(3,4-difluorophenoxy)piperidin-1-yl]-2-(4-methyl-1,3-thiazol-5-yl)ethyl}-6-fluorobenzamide] |
|  | 506 | 35.1 |  | Cc1ncsc1C(CNC(=O)c1c(F)cccc1Cl)N1CCC(OCc2cc(F)cc(F)c2)CC1 (stereo not shown) [Compound 5, 2-chloro-N-(2-{4-[(3,5-difluorophenyl)methoxy]piperidin-1-yl}-2-(4-methyl-1,3-thiazol-5-yl)ethyl)-6-fluorobenzamide] |
|  | 953 | 28.1 |  | Cc1ncsc1C(CNC(=O)c1c(F)cccc1Cl)N1CCC(OCc2ccccc2F)CC1 (stereo not shown) [Compound 4, 2-chloro-6-fluoro-N-(2-{4-[(2-fluorophenyl)methoxy]piperidin-1-yl}-2-(4-methyl-1,3-thiazol-5-yl)ethyl)benzamide] |
|  | 402 | 23.6 |  | Cc1ncsc1C(CNC(=O)c1c(F)cccc1Cl)N1CCC(Oc2cccc(F)c2)CC1 (stereo not shown) [Compound 9, 2-chloro-6-fluoro-N-{2-[4-(3-fluorophenoxy)piperidin-1-yl]-2-(4-methyl-1,3-thiazol-5-yl)ethyl}benzamide] |
|  | 583 | 42.9 |  | Cc1ncsc1C(CNC(=O)c1c(F)cccc1Cl)N1CCC(Oc2ccccc2F)CC1 (stereo not shown) [Compound 10, 2-chloro-6-fluoro-N-{2-[4-(2-fluorophenoxy)piperidin-1-yl]-2-(4-methyl-1,3-thiazol-5-yl)ethyl}benzamide] |
|  | 329 | 40.7 |  | O=C(NCC(c1scnc1C(F)F)N1CCC(Oc2ccccc2F)CC1)c1c(F)cccc1Cl (stereo not shown) [Compound 30, 2-chloro-N-{2-[4-(difluoromethyl)-1,3-thiazol-5-yl]-2-[4-(2-fluorophenoxy)piperidin-1-yl]ethyl}-6-fluorobenzamide] |
